From US6043357A, “HIV protease inhibitors” (The University of Queensland, priority 1994, dated 2000)
“Also recorded” adds a separate entry of the source.

Each compound was assayed against HIV-1 protease (Human immunodeficiency virus type 1 group M subtype B, UniProt P03369) (assay: biochemical). Conditions: not given.
Experimental: HIV-1 protease activity was measured at 37° C. using a continuous fluorimetric assay based on the method of Toth et al., (Toth et al., 1990, Int. J. Pept. Res. 36 544-550). The substrate, 2-aminobenzoyl-threonine-isoleucine-norleucine-(p-nitro)-phenylalanine-glutamine-arginine-NH2 (Abz-NF^* -6), was synthesised by solid phase peptide synthesis (Kent et al., 1991, In: Peptides 1990: Proceedings of the Twenty-First European Peptide Symposium (Girault, E. and Andrew, D. eds.) pp 172-173, ESCOM, Leiden). Enzyme activity was measured as the increase in fluorescence intensity upon substrate hydrolysis. The change in fluorescence intensity was monitored with a Perkin Elmer LS50B luminescence spectrometer fitted with a thermostatted micro cuvette holder. Measurements were carried out using an excitation wavelength of 320 nm (bandwith 5 nm) and an emission wavelength of […] (bandwith 5 nm).
Inhibition assays were routinely carried out at pH 6.5 and μ=0.1 M using a single substrate concentration. The assay mixtures contained 50 μM Abz-NF^* -6 in 100 mM 2-(N-morpholino)ethanesulphonate buffer, containing 10% (v/v) glycerol and 50 μg/ml bovine serum albumin, in a total final volume of 400 μl. Where inhibitors had to be dissolved in dimethyl sulphoxide or other organic solvents, the final concentration of solvent in the control and inhibition assays were kept absolutely constant because of the severe inhibitory effect of some solvents on the enzyme activity (Bergman et al., 1992, 17th Ann. Lorne Conf. on Protein Struct. and Funct. Abstr.). In all assays, the reaction was initiated by the addition of 10 μl of enzyme solution.
With `CC(C)CNC(=O)C(Cc1ccccc1)NC[C@@H](O)[C@@H]1Cc2ccc(cc2)OCCCC(=O)N[C@@H](CC(N)=O)C(=O)N1` (stereo partly drawn) [Compound 34] the IC50 was 5200 nM. In the case of `CC(C)CNC(=O)C(Cc1ccccc1)NC[C@H](O)[C@@H]1Cc2ccc(cc2)OCCCC(=O)N[C@@H](CC(N)=O)C(=O)N1` (stereo partly drawn) [Compound 35], the IC50 is reported as 5200 nM. With `CCOC(=O)CCCOc1ccc(C[C@H](NC(=O)[C@H](CC(N)=O)NC(=O)OC(C)(C)C)[C@H](O)CN2CCC[C@H]2C(=O)NC(C)(C)C)cc1` [Compound 36] the “protease inhibition, stated in words” value was “much less active than 38 & 39”. `CCOC(=O)CCCOc1ccc(C[C@H](NC(=O)[C@H](CC(N)=O)NC(=O)OC(C)(C)C)[C@@H](O)CN2CCC[C@H]2C(=O)NC(C)(C)C)cc1` [Compound 37] was tested, and the “protease inhibition, stated in words” value was “much less active than 38 & 39”. `CC(C)N(C(=O)[C@@H]1CCCN1C[C@@H](O)[C@@H]1Cc2ccc(cc2)OCCCC(=O)N[C@@H](CC(N)=O)C(=O)N1)C(C)C` [Compound 40] was tested, and the IC50 was 106000 nM and the “protease inhibition, stated in words” value was “much less active”. In the case of `CC(C)N(C(=O)[C@@H]1CCCN1C[C@H](O)[C@@H]1Cc2ccc(cc2)OCCCC(=O)N[C@@H](CC(N)=O)C(=O)N1)C(C)C` [Compound 41], the IC50 is reported as 290000 nM and the “protease inhibition, stated in words” value is reported as “much less active”. With `CC(C)(C)NC(=O)[C@@H]1CCCCN1C[C@H](O)[C@@H]1Cc2ccc(cc2)OCCCC(=O)N[C@@H](CC(N)=O)C(=O)N1` [Compound 45] the IC50 was 5600 nM. With `CC[C@H](C)[C@H](NC(=O)[C@H](Cc1ccccc1)NC[C@@H](O)[C@@H]1Cc2ccc(cc2)OCCCC(=O)N[C@@H](C(C)C)C(=O)N1)C(=O)N[C@H](C(N)=O)C(C)C` [Compound 46] the “protease inhibition, stated in words” value was “there was not a great deal of difference”. With `CC[C@H](C)[C@H](NC(=O)[C@H](Cc1ccccc1)NC[C@H](O)[C@@H]1Cc2ccc(cc2)OCCCC(=O)N[C@@H](C(C)C)C(=O)N1)C(=O)N[C@H](C(N)=O)C(C)C` [Compound 47] the “protease inhibition, stated in words” value was “there was not a great deal of difference”. `CC(C)C[C@@H]1NC(=O)CCCOc2ccc(cc2)C[C@@H]([C@H](O)CN2CCCC[C@H]2C(=O)NC(C)(C)C)NC1=O` [Compound 54] was tested, and the “protease inhibition, stated in words” value was “slightly better than the isopropyl of 48/49”. `CC(C)C[C@@H]1NC(=O)CCCOc2ccc(cc2)C[C@@H]([C@@H](O)CN2CCCC[C@H]2C(=O)NC(C)(C)C)NC1=O` [Compound 55] was tested, and the “protease inhibition, stated in words” value was “slightly better than the isopropyl of 48/49”. In the case of `CC(=O)Nc1ccc(S(=O)(=O)N(CCC(C)C)C[C@H](O)[C@@H]2Cc3ccc(cc3)OCCCC(=O)N[C@@H](C(C)C)C(=O)N2)cc1` [Compound 59], the “protease inhibition, stated in words” value is reported as “potent inhibitors of HIV-1 protease”. For `CC(C)CCN(C[C@@H](O)[C@@H]1Cc2ccc(cc2)OCCCC(=O)N[C@@H](C(C)C)C(=O)N1)S(=O)(=O)c1ccc(N)cc1` [Compound 60], the “protease inhibition, stated in words” value was “Greater activity; also recorded: potent inhibitors of HIV-1 protease”. For `CC(C)[C@@H]1NC(=O)CCCOc2ccc(cc2)C[C@@H]([C@H](O)CN2CCN(Cc3ccccc3)CC2C(=O)NC(C)(C)C)NC1=O` (stereo partly drawn) [Compound 82], the “protease inhibition, stated in words” value was “increased potency”. In the case of `CC(C)[C@@H]1NC(=O)CCCOc2ccc(cc2)C[C@@H]([C@@H](O)CN2CCN(Cc3ccccc3)CC2C(=O)NC(C)(C)C)NC1=O` (stereo partly drawn) [Compound 83], the “protease inhibition, stated in words” value is reported as “increased potency”. For `CC[C@H](C)[C@@H]1NC(=O)[C@@H](NC[C@@H](O)[C@H](Cc2ccccc2)NC(=O)[C@@H](NC(=O)[C@H](CC(C)C)NC(C)=O)C(C)C)Cc2ccc(cc2)OCCCNC1=O` [Compound 87, [2(R),3(S),11'(S),8'(S)]-3-[-Acetyl-(S)-leucinyl-(S)-valinyl]amino-4-phenyl-1-[11'-[7',10'-dioxo-8'-(1-methylpropyl)-2'-oxa-6',9'-diazabicyclo[11.2.2]heptadeca-13',15',16'-triene]amino]butan-2-ol], the “protease inhibition, stated in words” value was “little effect”. In the case of `CC[C@H](C)[C@@H]1NC(=O)[C@@H](NC[C@@H](O)[C@H](Cc2ccccc2)NC(=O)[C@@H](NC(=O)[C@H](CC(C)C)NC(C)=O)C(C)C)Cc2ccc(cc2)OCCCCNC1=O` [Compound 88], the “protease inhibition, stated in words” value is reported as “little effect”. With `CC[C@H](C)[C@@H]1NC(=O)[C@@H](NC[C@@H](O)[C@H](Cc2ccccc2)NC(=O)O[C@H]2CCOC2)Cc2ccc(cc2)OCCCNC1=O` [Compound 91, [2R, 3S, 11'S, 8'S]-3-[3S-tetrahydrofuranyloxy]amino-4-phenyl-1-[11'-[7',10'-dioxo-8'-(1-methylpropyl)-2'-oxa-6',9'-diazabicyclo[11.2.2]heptadeca-13',15',16'-triene]amino]butan-2-ol] the “protease inhibition, stated in words” value was “not better as a P2 filler over the t-butyl group in 89”. With `CC(C)(C)OC(=O)N[C@@H](Cc1ccccc1)[C@H](O)CN[C@H]1Cc2ccc(cc2)OCCCNC(=O)[C@@H](CCC(N)=O)NC1=O` [Compound 107] the “protease inhibition, stated in words” value was “slightly enhanced activity”. In the case of `CC(C)(C)OC(=O)N[C@@H](Cc1ccccc1)[C@@H](O)CN[C@H]1Cc2ccc(cc2)OCCCNC(=O)[C@@H](CCC(N)=O)NC1=O` [Compound 108], the “protease inhibition, stated in words” value is reported as “slightly enhanced activity”. With `CC[C@H](C)[C@@H]1NC(=O)[C@@H](NC[C@@H](O)[C@@H]2Cc3ccc(cc3)OCCCC(=O)N[C@@H](CC(N)=O)C(=O)N2)Cc2ccc(cc2)OCCCNC1=O` [Compound 109] the “potency relative to compound 110” value was 100 -fold.

Same assay, conditions: Table 4; rac (R and S isomer together); read-out: IC50
With `CC(C)(C)NC(=O)C(Cc1ccccc1)NC[C@@H](O)[C@@H]1Cc2ccc(cc2)OCCCC(=O)N[C@@H](CC(N)=O)C(=O)N1` (stereo partly drawn) [Compound 30] the IC50 was 70000 nM. `CC(C)(C)NC(=O)C(Cc1ccccc1)NC[C@H](O)[C@@H]1Cc2ccc(cc2)OCCCC(=O)N[C@@H](CC(N)=O)C(=O)N1` (stereo partly drawn) [Compound 31] was tested, and the IC50 was 70000 nM. `CC(C)NC(=O)C(Cc1ccccc1)NC[C@@H](O)[C@@H]1Cc2ccc(cc2)OCCCC(=O)N[C@@H](CC(N)=O)C(=O)N1` (stereo partly drawn) [Compound 32] gave an IC50 of 42000 nM. `CC(C)NC(=O)C(Cc1ccccc1)NC[C@H](O)[C@@H]1Cc2ccc(cc2)OCCCC(=O)N[C@@H](CC(N)=O)C(=O)N1` (stereo partly drawn) [Compound 33] showed an IC50 of 42000 nM.

Same assay, conditions: Table 5; pH 6.5, 37° C.; read-out: IC50
In the case of `CCOC(=O)CCCOc1ccc(C[C@H](NC(=O)[C@H](CC(N)=O)NC(=O)OC(C)(C)C)[C@H](O)CN2CCC[C@H]2C(=O)NC(C)(C)C)cc1` [Compound 36], the IC50 is reported as 7050 nM. Work on `CCOC(=O)CCCOc1ccc(C[C@H](NC(=O)[C@H](CC(N)=O)NC(=O)OC(C)(C)C)[C@@H](O)CN2CCC[C@H]2C(=O)NC(C)(C)C)cc1` [Compound 37] yielded an IC50 of 22000 nM.

Same assay, conditions: Table 7; pH 6.5, 37° C.; read-out: IC50
`CC(C)CCN(C[C@@H](O)[C@@H]1Cc2ccc(cc2)OCCCC(=O)N[C@@H](C(C)C)C(=O)N1)S(=O)(=O)c1ccc(N)cc1` [Compound 60] was tested, and the IC50 was 2 nM. In the case of `CC(C)CCN(C[C@@H](O)[C@@H]1Cc2ccc(cc2)OCCCCC(=O)N[C@@H](C(C)C)C(=O)N1)S(=O)(=O)c1ccc(N)cc1` [Compound 62], the IC50 is reported as 1 nM.

Same assay, conditions: Table 9; R isomer; read-out: IC50
With `CC[C@H](C)[C@@H]1NC(=O)[C@@H](NC[C@@H](O)[C@H](Cc2ccccc2)NC(=O)[C@@H](NC(=O)[C@H](CC(C)C)NC(C)=O)C(C)C)Cc2ccc(cc2)OCCCNC1=O` [Compound 87, [2(R),3(S),11'(S),8'(S)]-3-[-Acetyl-(S)-leucinyl-(S)-valinyl]amino-4-phenyl-1-[11'-[7',10'-dioxo-8'-(1-methylpropyl)-2'-oxa-6',9'-diazabicyclo[11.2.2]heptadeca-13',15',16'-triene]amino]butan-2-ol] the IC50 was 2 nM. For `CC[C@H](C)[C@@H]1NC(=O)[C@@H](NC[C@@H](O)[C@H](Cc2ccccc2)NC(=O)[C@@H](NC(=O)[C@H](CC(C)C)NC(C)=O)C(C)C)Cc2ccc(cc2)OCCCCNC1=O` [Compound 88], the IC50 was 5 nM. `CC[C@H](C)[C@@H]1NC(=O)[C@@H](NC[C@@H](O)[C@H](Cc2ccccc2)NC(=O)OC(C)(C)C)Cc2ccc(cc2)OCCCNC1=O` [Compound 89, [2R, 3S, 11'S, 8'S]-3-[t-butoxycarbonyl]amino-4-phenyl-1-[11'-[7', 10'-dioxo-8'-(1-methylpropyl)-2'-oxa-6',9'-diazabicyclo[11.2.2]heptadeca-13',15',16'-triene]amino]butan-2-ol] showed an IC50 of 15 nM. `CC[C@H](C)[C@@H]1NC(=O)[C@@H](NC[C@H](Cc2ccccc2)NC(=O)OC(C)(C)C)Cc2ccc(cc2)OCCCNC1=O` [Compound 90, [2S, 11'S, 8'S]-2-[t-butoxycarbonyl]amino-3-phenyl-1-[11'-[7',10'-dioxo-8'-(-1-methylpropyl)-2'-oxa-6',9'-diazabicyclo[11.2.2]heptadeca-13',15',16'-triene]amino]propane] was tested, and the IC50 was 150 nM. `CC[C@H](C)[C@@H]1NC(=O)[C@@H](NC[C@@H](O)[C@H](Cc2ccccc2)NC(=O)O[C@H]2CCOC2)Cc2ccc(cc2)OCCCNC1=O` [Compound 91, [2R, 3S, 11'S, 8'S]-3-[3S-tetrahydrofuranyloxy]amino-4-phenyl-1-[11'-[7',10'-dioxo-8'-(1-methylpropyl)-2'-oxa-6',9'-diazabicyclo[11.2.2]heptadeca-13',15',16'-triene]amino]butan-2-ol] gave an IC50 of 15 nM.

Same assay, conditions: Table 10; pH 6.5, 37° C.; read-out: IC50
For `CC[C@H](C)[C@@H]1NC(=O)[C@@H](NC[C@@H](O)[C@H](Cc2ccc(OCC(=O)O)cc2)NC(=O)OC(C)(C)C)Cc2ccc(cc2)OCCCNC1=O` [Compound 99], the IC50 was 5 nM. With `CC[C@H](C)[C@@H]1NC(=O)[C@@H](NC[C@@H](O)[C@H](Cc2ccc(OCC(=O)OC)cc2)NC(=O)OC(C)(C)C)Cc2ccc(cc2)OCCCNC1=O` [Compound 101] the IC50 was 2 nM. `CCCCCCOC(=O)COc1ccc(C[C@H](NC(=O)OC(C)(C)C)[C@H](O)CN[C@H]2Cc3ccc(cc3)OCCCNC(=O)[C@H]([C@@H](C)CC)NC2=O)cc1` [Compound 105] showed an IC50 of 2 nM. For `CC(C)(C)OC(=O)N[C@@H](Cc1ccccc1)[C@H](O)CN[C@H]1Cc2ccc(cc2)OCCCNC(=O)[C@@H](CCC(N)=O)NC1=O` [Compound 107], the IC50 was 250 nM.

Same assay, conditions: read-out: IC50
Work on `CC(C)(C)NC(=O)[C@@H]1CCCN1C[C@@H](O)[C@@H]1Cc2ccc(cc2)OCCCC(=O)N[C@@H](CC(N)=O)C(=O)N1` [Compound 38] yielded an IC50 of 194 nM. `CC(C)(C)NC(=O)[C@@H]1CCCN1C[C@H](O)[C@@H]1Cc2ccc(cc2)OCCCC(=O)N[C@@H](CC(N)=O)C(=O)N1` [Compound 39] was tested, and the IC50 was 490 nM. Work on `CC(C)CCN(C[C@@H](O)[C@@H]1Cc2ccc(cc2)OCCCCCC(=O)N[C@@H](C(C)C)C(=O)N1)S(=O)(=O)c1ccc(N)cc1` [Compound 64] yielded an IC50 of 2 nM. Work on `CC[C@H](C)[C@@H]1NC(=O)[C@@H](NCC(O)[C@H](Cc2ccccc2)NC(=O)c2cccc(C)c2)Cc2ccc(cc2)OCCCNC1=O` (stereo partly drawn) [Compound 92] yielded an IC50 of 50 nM. `O=C1N(Cc2ccc(CO)cc2)[C@H](Cc2ccccc2)[C@H](O)[C@@H](O)[C@@H](Cc2ccccc2)N1Cc1ccc(CO)cc1` [Compound 94, reference compound] showed an IC50 of 1 nM.
